From BindingDB's records for doi:10.1021/acsmedchemlett.7b00169 (2017) come the findings set out here.

The assay concerns Enterococcus faecalis. Briefly: Antimicrobial activity against vancomycin-resistant Enterococcus faecalis NCTC12201 after 8 hrs.

Take `Nc1c(O)cccc1C(=O)C[C@H](N)C(=O)O`: 30 µM corresponded to half-maximal inhibition (IC50).

In general, IC50 refers to the concentration at which inhibition is half-maximal. A higher IC50 goes with lower potency.
